Data on 3 compounds can be found in ChEMBL document CHEMBL3393042, “Synthesis and photophysical characterization of quasi push-pull dicyanodibenzodioxins and their anti-tumor activity against glioma cell line C6” (Bioorg Med Chem Lett, 2015).

The structures appear in SMILES notation. Active and inactive are the calls of the source. No cut-off for these calls is given here.

The assay deals with C6. The assay is described as follows: Cytotoxicity against rat C6 cells assessed as cell viability at 2 to 50 uM after 24 hrs by MTT assay. The class given is functional, cell-based.

On to `N#Cc1cc2c(cc1C#N)Oc1ccccc1O2`, for which the outcome was Active.
For the compound `N#Cc1cc2c(cc1C#N)Oc1cc([N+](=O)[O-])ccc1O2`, the outcome was inactive.
In the case of `N#Cc1cc2c(cc1C#N)Oc1cc(Br)ccc1O2`, the result was Active.
